Article PMC12592418, “Therapeutic potential of red bean (phaseolus vulgaris) peptides: anticancer, antihypertension, and antioxidant activities” (Scientific Reports, 2025)
No end group written: not given here.

Assays:
[1] = DPPH radical scavenging assay; type: physicochemical; settings: peptide 100 µg/ml, 0.1 mM DPPH, 30 min in the dark, room temperature, absorbance 517 nm, mean ± SD, n = 3
Method: The DPPH radical scavenging activity of the sample was evaluated following the protocol by Muangrod et al.[48] with slight modifications. Briefly, 190 µL of 0.1 mM DPPH was mixed with 10 µL of the sample or standard ascorbic acid in each well and incubated at room temperature in the dark for 30 min. The absorbance of the mixture was measured at 517 nm using a microplate reader (Rayto RT-2100 C, China). Ascorbic acid was used as the standard. Results were expressed as micrograms ascorbic acid equivalent (µg AAE g^−1).

CaCO2 cells = test: MTT cell viability assay, CaCO2; type: cell-based, human; settings: synthetic peptide 100 µg/ml, 24 h, mean ± SD, n = 3
Method: (§1) CaCO2, HepG2, MCF-7, NCI-H460, SiHa, SW620, and Vero cells were obtained from the American Type Culture Collection (ATCC, Manassas, VA, USA). Cells were cultured in Dulbecco’s Modified Eagle’s Medium (DMEM; PAA, Pasching, Austria), supplemented with 10% (v/v) fetal bovine serum (Gibco, South America), 10 mM HEPES (HyClone, Utah, USA), 2 mM L-glutamine, and 100 U/mL penicillin and 100 µg/mL streptomycin. Cultures were maintained at 37 °C in a humidified atmosphere containing 5% CO₂.
(§2) The anticancer activity of protein hydrolysates and synthetic peptides against CaCO2, HepG2, MCF-7, NCI-H460, SiHa, SW620, and Vero cells were evaluated using the MTT assay. Cells were seeded into 96-well plates (Nunc™, Roskilde, Denmark) at a density of 2 × 10⁴ cells per well, and allowed to adhere. Following seeding, cells were treated with 100 µg/mL of protein hydrolysates or synthetic peptides for 24 h, while untreated cells served as controls. After 24 h, 20 µL of MTT solution (5 mg/mL; Sigma, St. Louis, MO, USA) was added to each well and incubated for an additional 3 h. The supernatant was then removed, and 100 µL of DMSO was added to each well to dissolve the formazan crystals. Optical density (OD) was measured at 540 nm using a microplate reader (Rayto RT-2100 C, China). Cell viability was calculated using the equation: (OD of treated cells/OD of untreated cells) × 100.
(§3) The IC50 values were calculated from a fitted semi-log response curve, plotting cell viability percentages against concentration. These values were determined using the AAT-Bioquest IC50 calculator (https://www.aatbio.com/tools/ic50-calculator).

SiHa cells = test: MTT cell viability assay, SiHa; type: cell-based, human; settings: synthetic peptide 100 µg/ml, 24 h, mean ± SD, n = 3
Method: as §1, §2, §3

SW620 cells = test: MTT cell viability assay, SW620; type: cell-based, human; settings: synthetic peptide 100 µg/ml, 24 h, mean ± SD
Method: as §1, §2, §3

Vero cells = test: MTT cell viability assay, Vero; type: cell-based, monkey; settings: synthetic peptide 100 µg/ml, 24 h, mean ± SD, n = 3
Method: as §1, §2, §3

HepG2 cells = test: MTT cell viability assay, HepG2; type: cell-based, human; settings: synthetic peptide 100 µg/ml, 24 h, mean ± SD, n = 3
Method: as §1, §2, §3

NCI-H460 cells = test: MTT cell viability assay, NCI-H460; type: cell-based, human; settings: synthetic peptide 100 µg/ml, 24 h, mean ± SD
Method: as §1, §2, §3

MCF-7 cells = test: MTT cell viability assay, MCF-7; type: cell-based, human; settings: synthetic peptide 100 µg/ml, 24 h, mean ± SD, n = 3
Method: as §1, §2, §3

[2] = test system: angiotensin-converting enzyme (ACE); test: ACE inhibitory activity assay (HHL substrate); type: biochemical; settings: peptide 100 µg/ml, ACE 0.2 U/mL, 5 mM HHL, phosphate buffer pH 6.8, 37 °C, mean ± SD, n = 3; SD
Method: The method utilized here is a spectrophotometric method based on the commonly used method introduced by Cushman and Cheung (1971)[45]. The 5 ul of sample was preincubated with 45 ul of ACE enzyme (0.2 U/mL) in 100 mM Phosphate buffer (pH 6.8) and incubated for 10 min at 37 °C. Enzyme activity was assayed by monitoring the hydrolysis of hippuryl-L-histidyl-L-leucine (HHL). After adding 50 µL of a 5 mM HHL substrate solution, the increase in absorbance at 405 nm was measured every minute for 15 min at 37 °C using a 96-well microplate reader. The initial velocity was determined from the linear portion of the curve, and the inhibitory activity was expressed as a percentage calculated using the following equation:
% inhibition = (1-(B-b)/(A-a)) x 100,
where A is an initial velocity of the control reaction with enzyme (control), a is an initial velocity of the control reaction without enzyme (control blank), B is an initial velocity of the enzyme reaction with sample and b is an initial velocity of the reaction with sample but without enzyme (sample blank).

[3] = FRAP ferric ion-reducing antioxidant power assay; type: physicochemical; settings: peptide 100 µg/ml, 30 min in the dark, absorbance 593 nm, mean ± SD, n = 3
Method: The ferric ion-reducing antioxidant power assay was analyzed according to the method by Rumpf et al.[47] with minor modifications. Briefly, the FRAP reagent was prepared from 300 mM sodium acetate (pH 3.6) and 10 mM TPTZ (2,4,6-tris (2-pyridyl)-s-triazine) in 40 mM HCl and 20 mM ferric chloride at the ratio of 10:1:1, respectively. Then, a 10 µL aliquot of the sample or standard was mixed with 190 µL of the FRAP reagent before incubating in the dark for 30 min. The absorbance was measured at 593 nm using a microplate reader (Rayto RT-2100 C, China). Ascorbic acid was used as the standard. Results were expressed as micrograms of ascorbic acid equivalent per gram (µg AAE g^−1).

[4] = ABTS radical scavenging assay; type: physicochemical; settings: peptide 100 µg/ml, 5 min in the dark, absorbance 750 nm, mean ± SD, n = 3
Method: Radical scavenging antioxidant activity was determined according to the ABTS radical scavenging activity following the method described by Re et al.[46] with slight modifications. Briefly, the solution of ABTS radical was prepared from the reaction between 7 mM ABTS (2,2-azino-bis (3-ethylbenzothiazoline-6-sulphonic acid) diammonium salt) and 2.45 mM ammonium persulphate. The resulting ABTS solution was diluted with distilled water to achieve an optical density of 0.7 at 750 nm. Then, a sample or standard of 10 µL was mixed with 190 µL of ABTS solution and incubated for 5 min in the dark. The absorbance was measured at 750 nm by a microplate reader (Rayto RT-2100 C, China). Ascorbic acid was used as the standard.

Sequence | Antioxidant, DPPH [1] | Inhibitory percentage, CaCO2 (CaCO2 cells) [%] | Inhibitory percentage, SiHa (SiHa cells) [%] | Inhibitory percentage, SW620 (SW620 cells; n = 3, SD) [%] | Inhibitory percentage, Vero (Vero cells) [%] | Inhibitory percentage, HepG2 (HepG2 cells) [%] | Inhibitory percentage, NCI-H460 (NCI-H460 cells; n = 3, SD) [%] | Inhibitory percentage, MCF-7 (MCF-7 cells) [%] | Antihypertension (%), percentage inhibition of ACE [2] [%] | Antioxidant, FRAP [3] | Antioxidant, ABTS [4] | Inhibitory percentage, SW620 (SW620 cells; n = 3) [%] | Inhibitory percentage, NCI-H460 (NCI-H460 cells; n = 3) [%]
APANGSAF [RB-5] | 374.62±13.56 µg ascorbic acid equivalent | 13.21±0.04 | 8.75±0.00 | 3.58±0.04 | 0 | 0 | 10.58±0.03 | 0 | 43.33±0.33 | 87.48±0.20 µg ascorbic acid equivalent | 412.60±0.71 µg ascorbic acid equivalent | – | –
SPTPPKNVPF [RB-3] | 227.13±1.55 µg ascorbic acid equivalent | 7.88±0.08 | 12.36±0.02 | – | 0 | 0 | – | 0 | 20.00±1.02 | 58.05±0.09 µg ascorbic acid equivalent | 274.73±0.27 µg ascorbic acid equivalent | 0 | 0
GSEIRSTSDDVL [RB-4] | 424.61±1.53 µg ascorbic acid equivalent | 11.27±0.07 | 11.45±0.00 | – | 0 | 0 | 6.08±0.01 | 0 | 13.33±0.60 | 128.47±0.86 µg ascorbic acid equivalent | 539.58±3.43 µg ascorbic acid equivalent | 0 | –
